The results in this text go back to patent US10287320B2, “Anti-lymphoma peptides” (Universitetet i Tromsø—Norges Arktiske Universitet, priority 2014, dated 2019).

Square brackets hold non-standard residues; d marks the D form. Ends that are not written are not given here. Trp(2,5,7-tBu3) = CC(C)(C)c1cc(C(C)(C)C)c2[nH]c(C(C)(C)C)c(C[C@H](N)C(=O)O)c2c1

One data set deals with A20 cells. The data set is described as follows: MTT cytotoxicity assay against A20 lymphoma cells. The class given is cell-based, Murine. As to conditions: for ΔIC50 on further increase of charge: 4a→5 and 6a→7, A20 cells; for ΔIC50 (difference in activity against A20): compared with peptide 4a; for IC50: A20 cells. As for the experimental part: (§1) The first screen against A20 and MRC-5 was done manually, while the lymphoma panel screen were done at Marbio (Tromsø) using an automated platform (Biomek NX, Beckman Coulter). Cells were automatically counted (Z1 Coulter Particle Counter, Beckman Coulter) and the cells seeded out in 96-well plates. The plates were incubated for at least 16 hours before the start of the assay. The growth media was removed and the cells washed once with 100 μL assay media (RPMI-1640). Cells were then treated with 100 μL peptide solution (concentration varying from 500-10 μg/mL) for 4 hrs. Normal assay media and assay media containing 0.1% Triton were used as negative and positive controls, respectively. After this period 10 μL of a MTT solution (5 mg/mL) was added to each well and the plate incubated for a further 2 hrs. Following this 70 μL of the media was carefully removed and 100 μL acidified isopropanol added. The formed formazan crystals were dissolved by agitating the cells with a micropipette and by shaking (30 mins). The absorbance of the reduced MTT (formazan) was read on Versa Max Microplate Reader (Molecular Devices) at 590 nm. All assays, unless mentioned otherwise, were done in triplicate.
(Formazan colour is commonly taken as a measure of viable cells.)

The subject of another data set is MRC-5 cells. The data set is described as follows: MTT cytotoxicity assay against MRC-5 normal fibroblasts (selectivity, SI-1). It counts as cell-based, Human. Here is the method: The first screen against A20 and MRC-5 was done manually, while the lymphoma panel screen were done at Marbio (Tromsø) using an automated platform (Biomek NX, Beckman Coulter).
Cells were automatically counted (Z1 Coulter Particle Counter, Beckman Coulter) and the cells seeded out in 96-well plates. The plates were incubated for at least 16 hours before the start of the assay.
as §1, with “The” for “The first screen against A20 and MRC-5 was done manually, while the lymphoma panel screen were done at Marbio (Tromsø) using an automated platform (Biomek NX, Beckman Coulter). Cells were automatically counted (Z1 Coulter Particle Counter, Beckman Coulter) and the cells seeded out in 96-well plates. The plates were incubated for at least 16 hours before the start of the assay. The”
During the initial screening process peptide analogues was tested against normal human fibroblasts (SI-1) and the results used to estimate cytotoxicity towards healthy cells surrounding the tumor.

Data set [1] has as its system SU-DHL-6 (diffuse large B cell lymphoma). The class given is cell-based, Human. Conditions: 16 h. Here is the method: as §1, with “Cells were then treated with 100 μL peptide solution (concentration varying from 500-10 μg/mL) for 4 hrs.” left out
Data set [2] concerns Namalawa (Burkitt's lymphoma). It counts as cell-based, Human. As to conditions: 16 h. As for the experimental part: as §1
The subject of data set [3] is Ramos (Burkitt's lymphoma). The class given is cell-based, Human. Conditions: 16 h. As for the experimental part: as §1
In the next data set the test system is three T-lymphoma lines. The class given is cell-based, Human. Conditions: 16 h. As for the experimental part:
as §1

The test system of data set [4] is DU-145 Prostate carcinoma. The class given is cell-based. Conditions: 4 h. As for the experimental part: as §1, with “The” for “The first screen against A20 and MRC-5 was done manually, while the lymphoma panel screen were done at Marbio (Tromsø) using an automated platform (Biomek NX, Beckman Coulter). Cells were automatically counted (Z1 Coulter Particle Counter, Beckman Coulter) and the cells seeded out in 96-well plates. The plates were incubated for at least 16 hours before the start of the assay. The”

The subject of the next data set is HT-29 Colon carcinoma. The class given is cell-based. Conditions: 4 h. Here is the method: as §1, with “The” for “The first screen against A20 and MRC-5 was done manually, while the lymphoma panel screen were done at Marbio (Tromsø) using an automated platform (Biomek NX, Beckman Coulter). Cells were automatically counted (Z1 Coulter Particle Counter, Beckman Coulter) and the cells seeded out in 96-well plates. The plates were incubated for at least 16 hours before the start of the assay. The”

The test system of the next data set is A20 lymphomas. As to conditions: mouse, in vivo. Here is the method:
A20 tumor cells were harvested, washed in RPMI-1640 and inoculated (i.d.) into the left side of the abdomen in BALB/c mice (5×10^6 cells in 50 μl RPMI-1640 per mouse). When the tumor size reached 20 mm^2 the mice were split into three groups and treated; Group1—nine mice with the vehicle (0.9% NaCl in sterile H2O), Group2a—eight mice where the tumors were treated with peptide 6a, and Group 3a—nine mice where the tumors were treated with peptide 11. Intralesional injections were performed once a day for three consecutive days.
Tumor size was measured three times a week using an electronic caliper and expressed as the area of an ellipse [(maximum dimension/2)×(minimum dimension/2)×[…]. Animals were killed when the tumor exceeded 100 mm^2. Animals were killed also if the tumor had not reached that size but presented ulcerations or the animals developed metastasis.
Survival curves were compared by the log-rank test. Groups were compared using one-way ANOVA test with Tukey's multiple comparison. Differences were considered significant when P<0.05.

Data set [5] in a line: Cardiovascular toxicity assessment in telemeterized rats. As to conditions: IV twice-daily, telemetry -1 to 8 hours. The class given is in vivo, Sprague-Dawley rats. As for the experimental part:
Male Sprague-Dawley (Charles River, Portage, Mich.) rats (320-400 g) were instrumented with DSI (St. Paul, Minn.) telemetry transmitters by CorDynamics.
EWL-6 was stored in a freezer set to maintain approximately −20° C. and protected from light. A formulation comprising EWL-6 was prepared at a dose volume of 1 mL/kg/dose in 0.9% sodium chloride for injection, U.S.P., for IV dosing. Doses were filtered through a […] PP filter prior to injection.
Each rat was manually restrained and vehicle or EWL-6 dosed twice-daily intravenously over approximately 1-2 minutes. Daily doses were separated by approximately 4 hours.
Pulse pressure (FIG. 8) and mean arterial pressure (FIG. 9) were recorded for −1 to 8 hours following the first daily dose via telemetry and reported in 1 minute averages from −1 to 8 hours following the first daily dose.

[6] abbreviates: Table 1, selectivity, normal human fibroblasts (MRC-5) versus A20 lymphoma, MTT.
Where [7] appears, read: five most active peptides from the A20 screening, tested against normal human fibroblasts.
[8] abbreviates: Table 2, analogues of 6a, MRC-5 fibroblasts versus A20 lymphoma, MTT.
Where [9] appears, read: Table 3, MRC-5 fibroblasts versus A20 lymphoma.

For “RWRW-GG-RRRRRRR (SEQ ID NO: 13) (RWRWGGRRRRRRR-NH2) [Peptide 5]”, the “ΔIC50 on further increase of charge” value in the data set with A20 cells is recorded as “≈ 1 μM”.

Turning to “RWRWRWGGRRRRRRR-NH2 [Peptide 7, RWRWRW-GG-RRRRRRR (SEQ ID NO: 15)]”, the “ΔIC50 on further increase of charge” value in the data set on A20 cells was “≈ 1 μM”. For the same substance, the “SI-1 / selectivity” value in the data set with MRC-5 cells (16 h) is given as “higher than 10”. For the same substance, the SI-1 in the data set with MRC-5 cells (setting [6]) came to 12.

Consider “(Tbt)R(Tbt)-GG-RRRRRRR (SEQ ID NO: 17) ([Trp(2,5,7-tBu3)]R[Trp(2,5,7-tBu3)]GGRRRRRRR-NH2; N-terminus assumed; SMILES CC(C)(C)c1cc(C(C)(C)C)c2[nH]c(C(C)(C)C)c(C[C@H](NC(=O)[C@H](CCCNC(=N)N)NC(=O)[C@@H](N)Cc3c(C(C)(C)C)[nH]c4c(C(C)(C)C)cc(C(C)(C)C)cc34)C(=O)NCC(=O)NCC(=O)N[C@@H](CCCNC(=N)N)C(=O)N[C@@H](CCCNC(=N)N)C(=O)N[C@@H](CCCNC(=N)N)C(=O)N[C@@H](CCCNC(=N)N)C(=O)N[C@@H](CCCNC(=N)N)C(=O)N[C@@H](CCCNC(=N)N)C(=O)N[C@@H](CCCNC(=N)N)C(N)=O)c2c1) [Peptide 4c]”, for which the “ΔIC50 (difference in activity against A20)” value in the data set with A20 cells is “small and unexpected decrease in activity”. In addition, in the data set with MRC-5 cells (setting [6]), the SI-1 amounted to 1. In addition, the “SI-1 / selectivity” value in the data set with MRC-5 cells (setting [7]) is reported as “almost no selectivity at all”.

As a reminder, the IC50 is the midpoint of a concentration-inhibition curve. Read a high IC50 as a need for much substance. As for “WRRRRRWRRRRW-NH2 [Peptide 11, WRRRRRWRRRRW (SEQ ID NO: 23)]”, the IC50 in data set [1] was below 10 µM; in data set [2], below 10 µM; in data set [3], below 10 µM; in the data set with three T-lymphoma lines, around 4.6 µM; in data set [4], 69 µM; in the data set on HT-29 Colon carcinoma, 70 µM. The systemic toxic effects entry in the data set on A20 lymphomas is “no signs of systemic toxic effects”.

In turn, “WRWRWGGKKKKKKK [WRWRW-GG-KKKKKKK, WRWRW-GG-KKKKKKK (SEQ ID NO:26)]” registered an IC50 in the data set on A20 cells (as described in Example 1) of 13.2 µM.

Turning to “W-GG-RRRRRRR (SEQ ID NO: 10) (WGGRRRRRRR-NH2) [Peptide 2]”, the “ΔIC50 (difference in activity against A20)” value in the data set on A20 cells amounted to 58 µM.

Take “WRWRW-GG-RRRR (SEQ ID NO: 20) (WRWRWGGRRRR-NH2) [Peptide 10]”: the SI-1 in the data set on MRC-5 cells (setting [8]) is listed as above 23.

Regarding “WGRRRRRGWGRRRRGW-NH2 [EWL-6, WGRRRRRGWGRRRRGW (SEQ ID NO: 8)]”, in data set [5], the “mean arterial pressure compared to control” value is listed as “No noticeable difference” and the “pulse pressure compared to control” value is on record as “No noticeable difference”.

Substance “WRWRW-GG-RRRRRR (SEQ ID NO: 18) [Peptide 8]” returned an SI-1 with MRC-5 cells (setting [8]) of 21.

Substance “WR(Tbt)-GG-RRRRRRR (SEQ ID NO: 16) (WR[Trp(2,5,7-tBu3)]GGRRRRRRR-NH2; N-terminus assumed; SMILES CC(C)(C)c1cc(C(C)(C)C)c2[nH]c(C(C)(C)C)c(C[C@H](NC(=O)[C@H](CCCNC(=N)N)NC(=O)[C@@H](N)Cc3c[nH]c4ccccc34)C(=O)NCC(=O)NCC(=O)N[C@@H](CCCNC(=N)N)C(=O)N[C@@H](CCCNC(=N)N)C(=O)N[C@@H](CCCNC(=N)N)C(=O)N[C@@H](CCCNC(=N)N)C(=O)N[C@@H](CCCNC(=N)N)C(=O)N[C@@H](CCCNC(=N)N)C(=O)N[C@@H](CCCNC(=N)N)C(N)=O)c2c1) [Peptide 4b]” displayed an SI-1 in the data set on MRC-5 cells (setting [6]) of 2. In the data set with MRC-5 cells (setting [7]), the “SI-1 / selectivity” value is given as “almost no selectivity at all”.

“WRWRW-GG-RRRRR (SEQ ID NO: 19) (WRWRWGGRRRRR-NH2) [Peptide 9]” yielded an SI-1 in the data set with MRC-5 cells (setting [8]) of 23.

Substance “KLAKLAKKLAKLAK-GG-RRRRRRR (SEQ ID NO: 9) [Peptide 1b]” gave an SI-1 in the data set with MRC-5 cells (setting [6]) of 5. Also, the “SI-1 / selectivity” value in the data set with MRC-5 cells (setting [7]) is “low selectivity”.

On to “WWWGGRRRRRRRRR [Peptide 6b, WWWGGRRRRRRRRR (SEQ ID NO: 21)]”, for which, in the data set on A20 cells (Table 3, MTT, 4 hrs treatment), the midpoint of inhibition, the IC50, lay at 3.5 µM. In addition, the SI-1 with MRC-5 cells (setting [8]) and in the data set on MRC-5 cells (setting [9]) was 9 each time.

“WRRRGRRWRGRRRW [Peptide 6c, WRRRGRRWRGRRRW (SEQ ID NO: 22)]” yielded an IC50 with A20 cells (Table 3, MTT, 4 hrs treatment) of 6.1 µM. Further, the SI-1 in the data set with MRC-5 cells (setting [8]) and in the data set with MRC-5 cells (setting [9]) was above 100 each time.

As to “WRWRWGGRRRRRRR-NH2 [Peptide 6a, WRWRW-GG-RRRRRRR (SEQ ID NO: 14)]”, the IC50 in [1] was below 10 µM; in [2], below 10 µM; in data set [3], below 10 µM; with three T-lymphoma lines it was around 4.6 µM. Further, the systemic toxic effects entry in the data set on A20 lymphomas is “no signs of systemic toxic effects”.
